Experiments:
[1] = system: whole cortex wound of wild C57 adult male mice; test: Experiment of skin wound healing (Example 2, wound without bacterial infection); type: in vivo, mice (C57BL/6); conditions: 10 mg/mouse mixed with 5 mg vaseline
Description: Wild C57 adult male mice (C57BL/6, purchased from Vital River) were taken and anesthetized, and then subjected to backside unhairing to establish a whole cortex wound with a 6 mm biopsy puncher. Attention should be paid to disinfection for preventing infection.
A normal control group: 5 mice, no administration.
A group administrated with vaseline: vaseline (vaseline for medical purpose, purchased from Tianjin Zhiyuan Chemical Reagent Co., Ltd., the same below), 5 mg vaseline/mouse, 5 mice.
A group administrated with A drug A: 10 mg/mouse, 10 mice (as a flavonoid control, and the drug A was soybean isoflavones).
A group administrated with a drug B: 10 mg/mouse, 10 mice (as a flavonoid control, and the drug B was quercetin).
A group administrated with cannflavin A: cannflavin A, 10 mg/mouse, 10 mice. The administration modes of the latter 4 groups were all application onto the wound, and the administration was conducted once a day. Because vaseline was a commonly used ointment base^[8], in the latter 3 groups, the drug A, the drug B or cannflavin A were respectively well mixed with 5 mg of vaseline and then administered.
Photos were taken to record a wound healing condition of mice on days 0, 4 and 7 of administration, and the healing degree of a wound area was calculated by the PhotoShop software with 1 cm^2 as a scale. […]

[2] = system: whole cortex wound inoculated with Staphylococcus aureus, mice with type II diabetes; test: Healing of skin wound infected with Staphylococcus aureus (2), comparison with flavonoid controls (Example 4); type: in vivo, mice (C57BL/6); conditions: 10 mg/mouse mixed with 5 mg vaseline, once a day
From the text: normal mice as control and mice with type II diabetes established according to the method of Example 1 were taken, anesthetized, and then subjected to backside unhairing to establish a whole cortex wound with a 6 mm biopsy puncher. The mice were inoculated with 1.5×10^6 CFU/ml of Staphylococcus aureus. […]
The experimental method was the same as that of Example 3, except that the grouping and administration were as follows:
A normal control group: no administration, 5 mice.
A type II diabetes control group administrated with vaseline: vaseline, 5 mg vaseline/mouse, 5 mice.
A type II diabetes group administrated with vaseline+a drug A: 10 mg/mouse, 10 mice (as a flavonoid control, and the drug A was soybean isoflavones).
A type II diabetes group administrated with vaseline+a drug B: 10 mg/mouse, 10 mice (as a flavonoid control, and the drug B was quercetin).
A type II diabetes group administrated with vaseline+cannflavin A: […], 10 mice.
The aforementioned 5 groups were all inoculated with Staphylococcus aureus according to the previous step (1).
The administration modes of the latter 4 groups were all application onto the wound, and the administration was conducted once a day. In the latter 3 groups, the drug A, the drug B or cannflavin A were respectively well mixed with 5 mg of vaseline as an ointment base and then administered.

O=c1c(O)c(-c2ccc(O)c(O)c2)oc2cc(O)cc(O)c12 [drug B, quercetin, reference compound]
time in which the wound basically healed ([1]; applied onto the wound once a day, normal mice, no infection): about 4 days
promoting the healing degree of wounds without bacterial infection, compared among drugs, vaseline and control ([1]; once a day, days 0, 4 and 7): no significant difference
help to wound healing [2]: could not help wound healing
